Test results from ChEMBL document CHEMBL5143585, “Discovery and characterization of benzyloxy piperidine based dopamine 4 receptor antagonists” (Bioorg Med Chem Lett, 2022).

Columns and labels:
[1] = target: D(2) dopamine receptor (Homo sapiens) (UniProt P14416); experiment: Displacement of [3H]N-methylspiperone from human D2 receptor expressed in HEK293 cell membrane at 10 uM by competitive inhibition based analysis; type: cell membranes
D(4) dopamine receptor = target: T1, D(4) dopamine receptor (Homo sapiens, UniProt P21917); experiment: Displacement of [3H]N-methylspiperone from human D4 receptor expressed in HEK293 cell membrane by competitive inhibition based analysis; type: cell membranes
T1 sequence (P21917 whole entry): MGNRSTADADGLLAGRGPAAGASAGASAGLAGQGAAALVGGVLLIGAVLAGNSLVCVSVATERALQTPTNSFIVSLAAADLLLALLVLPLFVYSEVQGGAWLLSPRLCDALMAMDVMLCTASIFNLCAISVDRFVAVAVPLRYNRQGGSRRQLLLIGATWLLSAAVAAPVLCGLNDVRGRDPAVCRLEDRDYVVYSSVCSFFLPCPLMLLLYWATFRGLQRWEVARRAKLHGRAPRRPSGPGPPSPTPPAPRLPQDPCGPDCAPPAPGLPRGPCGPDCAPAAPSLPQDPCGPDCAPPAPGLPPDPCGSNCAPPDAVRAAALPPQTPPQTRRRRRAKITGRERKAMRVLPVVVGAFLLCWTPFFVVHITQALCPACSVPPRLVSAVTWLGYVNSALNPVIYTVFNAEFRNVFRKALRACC

D(3) dopamine receptor = D(3) dopamine receptor (Homo sapiens, UniProt P35462); experiment: Displacement of [3H]N-methylspiperone from human D3 receptor expressed in HEK293 cell membrane at 10 uM by competitive inhibition based analysis; type: cell membranes
D(1A) dopamine receptor = D(1A) dopamine receptor (Homo sapiens, UniProt P21728); experiment: Displacement of [3H]-SCH23390 from human D1 receptor expressed in HEK293 cell membrane at 10 uM by competitive inhibition based analysis; type: cell membranes
D(1B) dopamine receptor = D(1B) dopamine receptor (Homo sapiens, UniProt P21918); experiment: Displacement of [3H]-SCH23390 from human D5 receptor expressed in HEK293 cell membrane at 10 uM by competitive inhibition based analysis; type: cell membranes
[2] = target: T2, D(4) dopamine receptor (Homo sapiens) (UniProt P21917); experiment: Displacement of [3H]N-methylspiperone from human D4 receptor expressed in HEK293 cell membrane at 10 uM by competitive inhibition based analysis; type: cell membranes
T2 sequence (whole entry): T1 sequence (P21917 whole entry)

[3] = Protein binding in human plasma assessed as unbound fraction; type: ADME, cell-free
[4] = Protein binding in mouse plasma assessed as unbound fraction; type: ADME, cell-free

D(1A) dopamine receptor, sequence (P21728 whole entry): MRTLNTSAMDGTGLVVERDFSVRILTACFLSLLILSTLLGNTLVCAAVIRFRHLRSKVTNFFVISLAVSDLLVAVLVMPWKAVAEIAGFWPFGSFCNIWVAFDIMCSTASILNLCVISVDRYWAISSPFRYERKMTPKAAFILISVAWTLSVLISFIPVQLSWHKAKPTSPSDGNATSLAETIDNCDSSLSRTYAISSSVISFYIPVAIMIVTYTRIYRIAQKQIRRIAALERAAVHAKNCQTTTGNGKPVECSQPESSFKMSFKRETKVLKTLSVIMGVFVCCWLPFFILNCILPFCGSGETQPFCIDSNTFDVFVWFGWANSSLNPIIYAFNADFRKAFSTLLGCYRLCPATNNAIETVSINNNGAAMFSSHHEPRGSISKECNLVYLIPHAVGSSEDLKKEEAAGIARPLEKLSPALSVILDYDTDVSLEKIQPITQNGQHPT
D(3) dopamine receptor, sequence (P35462 whole entry): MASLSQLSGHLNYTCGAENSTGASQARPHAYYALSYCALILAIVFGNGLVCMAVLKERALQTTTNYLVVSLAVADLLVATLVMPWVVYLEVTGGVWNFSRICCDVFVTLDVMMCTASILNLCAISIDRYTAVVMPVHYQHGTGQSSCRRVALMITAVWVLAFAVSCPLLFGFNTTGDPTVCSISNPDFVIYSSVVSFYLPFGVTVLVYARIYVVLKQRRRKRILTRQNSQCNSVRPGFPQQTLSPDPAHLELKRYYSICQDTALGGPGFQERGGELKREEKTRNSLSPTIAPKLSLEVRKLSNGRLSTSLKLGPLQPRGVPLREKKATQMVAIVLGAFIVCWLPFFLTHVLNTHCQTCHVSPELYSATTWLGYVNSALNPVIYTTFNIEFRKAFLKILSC
D(1B) dopamine receptor, sequence (P21918 whole entry): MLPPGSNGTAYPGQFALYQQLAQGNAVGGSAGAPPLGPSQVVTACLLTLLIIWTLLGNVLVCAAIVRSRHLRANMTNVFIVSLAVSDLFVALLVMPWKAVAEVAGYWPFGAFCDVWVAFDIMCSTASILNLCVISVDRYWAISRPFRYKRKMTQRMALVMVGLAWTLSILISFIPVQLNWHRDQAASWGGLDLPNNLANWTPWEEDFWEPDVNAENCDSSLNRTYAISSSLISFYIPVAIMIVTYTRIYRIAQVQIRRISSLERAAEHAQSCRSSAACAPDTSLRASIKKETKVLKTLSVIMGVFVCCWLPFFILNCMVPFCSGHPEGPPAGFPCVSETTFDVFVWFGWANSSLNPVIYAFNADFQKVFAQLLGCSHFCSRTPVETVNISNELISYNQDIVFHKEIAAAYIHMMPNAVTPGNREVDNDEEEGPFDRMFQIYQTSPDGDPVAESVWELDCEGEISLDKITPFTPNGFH
D(2) dopamine receptor (Homo sapiens), sequence (P14416 whole entry): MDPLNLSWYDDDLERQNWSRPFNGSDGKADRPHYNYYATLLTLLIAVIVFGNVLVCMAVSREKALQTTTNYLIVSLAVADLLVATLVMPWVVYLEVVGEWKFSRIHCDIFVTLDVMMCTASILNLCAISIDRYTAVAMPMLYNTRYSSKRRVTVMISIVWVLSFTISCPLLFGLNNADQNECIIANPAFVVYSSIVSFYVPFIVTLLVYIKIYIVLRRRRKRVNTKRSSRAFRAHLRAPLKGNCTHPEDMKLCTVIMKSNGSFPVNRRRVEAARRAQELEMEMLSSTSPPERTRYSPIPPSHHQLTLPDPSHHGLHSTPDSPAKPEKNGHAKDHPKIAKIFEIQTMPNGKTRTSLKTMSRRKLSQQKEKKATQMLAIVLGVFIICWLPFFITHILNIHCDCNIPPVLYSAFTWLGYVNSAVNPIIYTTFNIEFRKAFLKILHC

Row | Compound | inhibition [1] [%] | IC50 (D(4) dopamine receptor) [nM] | Ki (D(4) dopamine receptor) [nM] | inhibition (D(3) dopamine receptor) [%] | inhibition (D(1A) dopamine receptor) [%] | inhibition (D(1B) dopamine receptor) [%] | inhibition ([2]; filed as antagonist) [%] | Fu [3] [%] | Fu [4] [%] | inhibition [2] [%]
1 | Fc1cccc(CO[C@H]2CCCN(Cc3cn4ccccc4n3)C2)c1 | < 50 | 1950 | 1940 | < 50 | < 50 | < 50 |  |  |  | 
2 | Fc1cc(COC2CCN(Cc3ccc4[nH]ncc4c3)CC2)ccc1Cl |  | 575 | 580 |  |  |  |  |  |  | 
3 | FC(F)(F)Oc1cccc(CO[C@H]2CCCN(Cc3ncc4ccccn34)C2)c1 | < 50 |  |  | < 50 | < 50 | < 50 | 40.4 |  |  | 
4 | Cc1nc(CN2CCC(OCc3ccc(F)c(F)c3)CC2)c2ccccn12 | < 50 | 479 | 478 | < 50 | < 50 | < 50 |  |  |  | 
5 | Cc1cccc(CO[C@H]2CCCN(Cc3cc4ccc(Cl)cc4[nH]3)C2)n1 | < 50 | 316 | 319 | < 50 | < 50 | < 50 |  |  |  | 
6 | Fc1cccc(CO[C@H]2CCCN(Cc3ncn4ccccc34)C2)c1 | < 50 | 1350 | 1340 | < 50 | < 50 | < 50 |  |  |  | 
7 | Fc1ccc(COC2CCN(Cc3ncc4ccccn34)CC2)cc1F | < 50 | 214 | 215 | < 50 | < 50 | < 50 |  |  |  | 
8 | Cc1ccc(CO[C@H]2CCCN(Cc3ccc(C#N)cc3)C2)cc1 | < 50 | 1020 | 1010 | < 50 | < 50 | < 50 |  |  |  | 
9 | Cn1ncc2cc(CN3CCC(OCc4ccc(Cl)c(F)c4)CC3)ccc21 | < 50 | 170 | 170 | < 50 | < 50 | < 50 |  | 0.9 | 5.2 | 
10 | Cc1cc(CO[C@H]2CCCN(Cc3cn4ccccc4n3)C2)ccc1F | < 50 | 186 | 187 | < 50 | < 50 | < 50 |  |  |  | 
11 | Fc1cc(COC2CCN(Cc3ncc4ccccn34)CC2)ccc1Cl | < 50 | 158 | 158 | < 50 | < 50 | < 50 |  | 1 | 1.7 | 
12 | Cc1cccc(CO[C@H]2CCCN(Cc3cn4ccccc4n3)C2)n1 | < 50 |  |  | < 50 | < 50 | < 50 |  |  |  | 22.5
13 | Fc1cccc(COC2CCN(Cc3cn4ccccc4n3)CC2)c1 | < 50 | 166 | 167 | < 50 | < 50 | < 50 |  | 7 | 35.5 | 
14 | Cc1ccccc1CO[C@H]1CCCN(Cc2ccc(Cl)cc2F)C1 | < 50 |  |  | < 50 | < 50 | < 50 |  |  |  | -1.6
15 | Cc1cc(CO[C@H]2CCCN(Cc3ncn4ccccc34)C2)ccc1F | < 50 | 162 | 166 | < 50 | < 50 | < 50 |  |  |  | 
16 | FC(F)(F)c1cccc(COC2CCN(Cc3cn4ccccc4n3)CC2)c1 | < 50 | 166 | 166 | < 50 | < 50 | < 50 |  | 1.8 | 17.1 | 
17 | Cc1ccccc1CN1CCC[C@H](OCc2cccc(F)c2)C1 | < 50 |  |  | < 50 | < 50 | < 50 |  |  |  | 29.2
18 | Cn1cnc2cc(CN3CCC(OCc4ccc(Cl)c(F)c4)CC3)ccc21 |  |  |  |  |  |  | 48 |  |  | 
19 | FC(F)(F)Oc1cccc(CO[C@H]2CCCN(Cc3cn4ccccc4n3)C2)c1 | < 50 | 646 | 646 | < 50 | < 50 | < 50 |  |  |  | 
20 | FC(F)(F)c1cccc(COC2CCN(Cc3ncc4ccccn34)CC2)c1 | < 50 | 209 | 208 | < 50 | < 50 | < 50 |  |  |  | 
21 | FC(F)(F)c1cccc(COC2CCN(Cc3ccc4[nH]ncc4c3)CC2)c1 |  | 851 | 860 |  |  |  |  |  |  | 
22 | Cc1ccccc1CO[C@H]1CCCN(Cc2cn3ccccc3n2)C1 | < 50 | 1820 | 1830 | < 50 | < 50 | < 50 |  |  |  | 
23 | Cc1ccccc1CO[C@H]1CCCN(Cc2ccc(Cl)c(Cl)c2)C1 | < 50 |  |  | < 50 | < 50 | < 50 | 43.9 |  |  | 
24 | Cc1cccc(CO[C@H]2CCCN(Cc3ncc4ccccn34)C2)n1 | < 50 |  |  | < 50 | < 50 | < 50 |  |  |  | 18.9
25 | Fc1cccc(COC2CCN(Cc3ncn4ccccc34)CC2)c1 | < 50 | 166 | 166 | < 50 | < 50 | < 50 |  | 2.3 | 40.5 | 
26 | Cc1nc(CN2CCC(OCc3ccc(Cl)c(F)c3)CC2)c2ccccn12 | < 50 | 95.5 | 95.5 | < 50 | < 50 | < 50 |  | 7.1 | 13.2 | 

Second part, the molecule after the results:

Row | inhibition [1] [%] | IC50 (D(4) dopamine receptor) [nM] | Ki (D(4) dopamine receptor) [nM] | inhibition (D(3) dopamine receptor) [%] | inhibition (D(1A) dopamine receptor) [%] | inhibition (D(1B) dopamine receptor) [%] | inhibition ([2]; filed as antagonist) [%] | Fu [3] [%] | Fu [4] [%] | inhibition [2] [%] | Compound
27 | < 50 | 166 | 165 | < 50 | < 50 | < 50 |  |  |  |  | Cc1ccc(CN2CCC[C@H](OCc3ccc(F)c(C)c3)C2)cc1
28 | < 50 | 135 | 135 | < 50 | < 50 | < 50 |  |  |  |  | COc1ccc(CN2CCC[C@H](OCc3ccc(F)c(C)c3)C2)cc1F
29 | < 50 | 204 | 206 | < 50 | < 50 | < 50 |  |  |  |  | COc1ccc(CN2CCC[C@H](OCc3cccc(F)c3)C2)cc1F
30 |  | 2000 | 1980 |  |  |  |  |  |  |  | COc1ccc(CN2CCC[C@@H](OCc3ccc(F)c(C)c3)C2)cc1F
31 | < 50 | 347 | 343 | < 50 | < 50 | < 50 |  |  |  |  | COc1ccc(CN2CCC[C@H](OCc3ccccc3C)C2)cc1F
32 | < 50 |  |  | < 50 | < 50 | < 50 | 45.8 |  |  |  | COc1ccc(CO[C@H]2CCCN(Cc3cccc(C)c3)C2)cc1F
33 |  | 1740 | 1730 |  |  |  |  |  |  |  | Fc1ccc(COC2CCN(Cc3ccc4[nH]ncc4c3)CC2)cc1F
34 |  | 1410 | 1400 |  |  |  |  |  |  |  | Cn1cnc2cc(CN3CCC(OCc4ccc(F)c(F)c4)CC3)ccc21
35 | < 50 |  |  | < 50 | < 50 | < 50 |  |  |  | 33.1 | Cc1ccc(CO[C@H]2CCCN(Cc3cccc(F)c3)C2)cc1
36 | < 50 |  |  | < 50 | < 50 | < 50 | 44.9 |  |  |  | Fc1cccc(CO[C@H]2CCCN(Cc3ccc(Cl)cc3F)C2)c1
37 | < 50 | 372 | 375 | < 50 | < 50 | < 50 |  | 0.2 | 8.7 |  | Fc1ccc(CO[C@H]2CCCN(Cc3cn4ccccc4n3)C2)cc1F
38 | < 50 | 1050 | 1040 | < 50 | < 50 | < 50 |  |  |  |  | COc1ccc(CN2CCC[C@H](OCc3cccc(C)n3)C2)cc1F
39 | < 50 | 170 | 169 | < 50 | < 50 | < 50 |  | 1.1 | 2.6 |  | COc1ccc(CN2CCC[C@H](OCc3ccc(F)c(F)c3)C2)cc1F
40 | < 50 | 1380 | 1390 | < 50 | < 50 | < 50 |  |  |  |  | Cc1ccc(CO[C@H]2CCCN(Cc3ccc(Cl)c(Cl)c3)C2)cc1
41 | < 50 | 447 | 447 | < 50 | < 50 | < 50 |  | 3.9 | 18.1 |  | Fc1ccc(CO[C@H]2CCCN(Cc3ncn4ccccc34)C2)cc1F
42 | < 50 | 240 | 241 | < 50 | < 50 | < 50 |  |  |  |  | COc1ccc(CN2CCC[C@H](OCc3ccc(C)cc3)C2)cc1F
